Source: patent US12582628B2, “Methods for treating breast cancer” (Olatec Therapeutics, Inc., priority 2019, dated 2026)
Like-named read-outs stand apart in the source and are kept apart here.

Tests used:
IFNγ = experiment: Splenocyte cytokine secretion (ELISA): IFNγ; type: in vivo; conditions: splenocytes of 4T1 tumor-bearing mice, LPS 10 μg/mL, 72 hours, vs vehicle (FIG. 4C)
Method: (§1) Splenocyte Cytokine Secretion. 4T1 cells were injected as described. Spleens from tumor-bearing mice were processed for cell culture through mechanical dissociation. Cells suspended in RPMI supplemented with 10% FBS, 100 units/mL penicillin, 0.1 mg/ml streptomycin and were plated at 5.0e^5 and stimulated with 10 μg/mL LPS. After 72 hours, supernatants were removed and cytokines were measured via ELISA (R&D Systems, Minneapolis, MN).
(§2) In this Example, 4T1 TNBC mice were generated and fed a standard diet or a dapansutrile diet for 15 days.

TSLP [1] = experiment: Gene expression (qPCR) in primary 4T1 tumors: TSLP; type: in vivo, mice; conditions: dapansutrile diet vs vehicle (FIG. 2D)
Method: (§3) Gene Expression. RNA was then isolated using Trizol (Thermo Fisher Scientific) and synthesized in cDNA using SuperScript III First-Strand (Thermo Fisher Scientific). Quantitative PCR (qPCR) was performed on cDNA using Power SYBR Green PCR master mix (Thermo Fisher Scientific) on Biorad CFX96 Real time system. Gene expression was assessed for Tslp, Tslpr, and Pdcd-11L1 mRNAs as indicated using the following primers: […]
(§4) Tumor Model. Animal protocols were approved by the University of Colorado Health Sciences Center Animal Care and Use Committee. Female BALB/c mice, 6-8 weeks old (The Jackson Laboratory), were fed standard or dapansutrile (OLT1177®) diet (4), which was started on the day of 4T1 injection. 4T1 cells (2×10^5) were injected orthotopically into the mammary fat pad. […]
(§5) Previous studies on the tumor-myeloid cell interactions in triple-negative breast cancer indicate that tumor-derived IL-1α promotes infiltrating myeloid cells to secrete TSLP (thymic stromal lymphopoietin), which in turn is critical for tumor progression at both primary and distant metastatic sites (15). To further evaluate the effects of blocking NLRP3 in 4T1 tumor progression, inventors quantified gene expression of TSLP and its associated receptor TSLPR in primary 4T1 tumors as measured by relative mRNA expression. […]

PD-L1 [2] = experiment: Gene expression (qPCR) in 4T1 tumors: PD-L1; type: in vivo, mice; conditions: dapansutrile diet vs standard diet (FIG. 3D)
Method: as §3
Tumor Model. Animal protocols were approved by the University of Colorado Health Sciences Center Animal Care and Use Committee. Female BALB/c mice, 6-8 weeks old (The Jackson Laboratory), were fed standard or dapansutrile (OLT1177®) diet (4), which was started on the day of 4T1 injection. 4T1 cells (2×10^5) were injected orthotopically into the mammary fat pad. Mice treated with dapansutrile were fed ad libidum with food pellets containing 7.5 g/kg dapansutrile, which started on the day of the 4T1 injection and continued for 15 days. Mice typically consume about 4 g of food per day, resulting in an approximate daily dose of 0 mg/kg/day for control groups and 1,000 mg/kg/day for the treatment groups. […] Control (“vehicle”) mice were fed with control food pellets without dapansutrile. Mice were sacrificed following 15 days after 4T1 injection. […]

TSLPR [3] = experiment: Gene expression (qPCR) in primary 4T1 tumors: TSLPR; type: in vivo, mice; conditions: dapansutrile diet vs vehicle (FIG. 2E)
Method: as §3, §4, §5

NLRP3 inflammasome = NLRP3 inflammasome (Homo sapiens, UniProt Q96P20); conditions: cited from earlier work
PD-L1 [4] = experiment: PD-L1 mRNA expression in IL-1α-stimulated E0771 cells; type: cell-based, murine; conditions: IL-1α 10 ng/mL, dapansutrile vs vehicle (FIG. 3E)
Method: (§6) Cell Lines. The mammary carcinoma cell lines 4T1, E0771, and MDA-468 were obtained from ATCC (Manassas, VA). Cells were cultured in DMEM supplemented with 10% FBS, 100 units/mL penicillin, 0.1 mg/ml streptomycin. Cells were maintained in a humidified 5% CO2 atmosphere at 37° C.
(§7) In vitro. Tumor cell lines were adhered overnight at a concentration of 200,000 per well. The following day human recombinant IL-1α or IL-1β (R&D Systems, Minneapolis, MN) were added with or without dapansutrile (OLT1177®) and incubated for 24 hours. Cells were then lysed using TRIzol reagent (Thermo Fisher Scientific, Waltham, MA).
as §3
In vitro analysis of the murine triple-negative breast cancer cell line E0771 was conducted to examine the effects of dapansutrile on PD-L1 expression levels following cell death signaling. IL-1α stimulation was used to simulate cell death signaling in the tumor-microenvironment. […]

TSLP [5] = experiment: TSLP mRNA expression in IL-1α-stimulated MDA-468 cells; type: cell-based, human; conditions: IL-1α 20 ng/mL, dapansutrile 10 μM, 24 hours, vs control (FIG. 2F)
Method: as §6, §7
(§8) Gene Expression. […] Quantitative PCR (qPCR) was performed on cDNA using Power SYBR Green PCR master mix (Thermo Fisher Scientific) on Biorad CFX96 Real time system. Gene expression was assessed for Tslp, Tslpr, and Pdcd-11L1 mRNAs as indicated using the following primers: […]
as §5

TSLPR [6] = experiment: TSLPR mRNA expression in IL-1α-stimulated MDA-468 cells; type: cell-based, human; conditions: IL-1α 20 ng/mL, dapansutrile 10 μM, 24 hours, vs control (FIG. 2G)
Method: as §6, §7, §8, §5

4T1 TNBC = 4T1 TNBC orthotopic tumor model (tumor volume, survival); type: in vivo, mice (BALB/c)
Method: Tumor Model. Animal protocols were approved by the University of Colorado Health Sciences Center Animal Care and Use Committee. Female BALB/c mice, 6-8 weeks old (The Jackson Laboratory), were fed standard or dapansutrile (OLT1177®) diet (4), which was started on the day of 4T1 injection. 4T1 cells (2×10^5) were injected orthotopically into the mammary fat pad. Mice treated with dapansutrile were fed ad libidum with food pellets containing 7.5 g/kg dapansutrile, which started on the day of the 4T1 injection and continued for 15 days. Mice typically consume about 4 g of food per day, resulting in an approximate daily dose of 0 mg/kg/day for control groups and 1,000 mg/kg/day for the treatment groups. […] Control (“vehicle”) mice were fed with control food pellets without dapansutrile. Mice were sacrificed following 15 days after 4T1 injection.
(§9) Anti-PD-1 Combination Therapy. 4T1 cells were injected as described. After instillation of 4T1 cells, mice were started on dapansutrile (OLT1177®) diet or continued on standard diet as described and at day seven a neutralizing antibody against PD-1 (200 μg/mouse; BioXCell, West Lebanon, NH) was injected peritoneally. Mice were sacrificed following 15 days from the […] instillation.
as §9, with “Anti-IL-1α” for “Anti-PD-1”, “every three days” for “at day seven”, “anti-IL-1α” for “PD-1”, “XBioTech, Austin, TX)” for “BioXCell, West Lebanon, NH)”
4T1 TNBC mice were generated and fed a standard diet or a dapansutrile diet for 15 days. Tumors were measured on indicated days to generate a growth curve (FIG. 1C). Final tumor volume was taken following resection of the tumors (FIG. 1B).
To further assess the roles of IL-1α and IL-1β in driving 4T1 tumor progression, inventors treated mice with anti-IL-1α (200 μg/mouse), dapansutrile diet, and a combination of both. 4T1 TNBC mice were generated and fed a standard diet or a dapansutrile diet for 15 days. Mice were injected with anti-IL1α every 3 days as indicated. Subsequently, tumor volume was analyzed.
4T1 TNBC mice were generated and fed a standard diet or a dapansutrile diet for 15 days. Mice receiving a combination therapy were injected with anti-PD-1 on day 7 as indicated (FIG. 3A).

[7] = orally administered to healthy subjects; cited from earlier work
[8] = mice, 7.5 g/kg dapansutrile in food (about 1,000 mg/kg/day); nearly the same as human level; cited from earlier work
IL-22 = experiment: Splenocyte cytokine secretion (ELISA): IL-22; type: in vivo; conditions: splenocytes of 4T1 tumor-bearing mice, LPS 10 μg/mL, 72 hours, vs vehicle (FIG. 4B)
Method: as §1, §2

[9] = humans treated orally at 1000 mg/day; cited from earlier work

Chain of NLRP3 inflammasome (Q96P20 whole entry): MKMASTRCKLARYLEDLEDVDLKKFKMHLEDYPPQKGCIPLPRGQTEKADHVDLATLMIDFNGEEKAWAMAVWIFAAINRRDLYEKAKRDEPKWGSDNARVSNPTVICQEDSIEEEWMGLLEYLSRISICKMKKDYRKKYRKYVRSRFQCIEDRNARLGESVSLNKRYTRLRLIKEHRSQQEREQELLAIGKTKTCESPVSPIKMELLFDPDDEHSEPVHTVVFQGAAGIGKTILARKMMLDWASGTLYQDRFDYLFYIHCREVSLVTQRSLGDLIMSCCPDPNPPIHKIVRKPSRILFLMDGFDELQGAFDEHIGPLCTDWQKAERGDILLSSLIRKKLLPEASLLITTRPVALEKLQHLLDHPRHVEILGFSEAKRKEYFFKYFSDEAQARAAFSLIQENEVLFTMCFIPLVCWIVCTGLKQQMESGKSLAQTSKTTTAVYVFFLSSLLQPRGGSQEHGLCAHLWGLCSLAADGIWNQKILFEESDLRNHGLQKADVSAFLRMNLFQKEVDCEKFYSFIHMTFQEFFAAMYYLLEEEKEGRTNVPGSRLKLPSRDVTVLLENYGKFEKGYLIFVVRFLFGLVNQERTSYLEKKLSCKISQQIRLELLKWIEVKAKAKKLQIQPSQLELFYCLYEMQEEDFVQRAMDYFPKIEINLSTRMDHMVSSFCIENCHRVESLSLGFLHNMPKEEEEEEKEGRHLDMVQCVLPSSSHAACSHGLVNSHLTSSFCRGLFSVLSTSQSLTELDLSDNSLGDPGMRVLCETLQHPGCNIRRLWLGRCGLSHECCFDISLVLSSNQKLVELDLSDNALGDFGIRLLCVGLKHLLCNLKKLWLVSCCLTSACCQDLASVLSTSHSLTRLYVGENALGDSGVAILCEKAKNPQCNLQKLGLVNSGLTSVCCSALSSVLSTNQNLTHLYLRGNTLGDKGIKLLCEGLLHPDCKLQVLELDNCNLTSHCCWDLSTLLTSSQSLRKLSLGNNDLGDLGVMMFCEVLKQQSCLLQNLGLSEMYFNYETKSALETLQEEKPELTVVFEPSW

SMILES: CS(=O)(=O)CCC#N [dapansutrile, 3-methanesulfonyl-propionitrile]
- IFNγ levels (IFNγ): increased
- TSLP expression (relative mRNA) (TSLP [1]): significantly lower
- PD-L1 gene expression (relative mRNA) (PD-L1 [2]): significantly less
- TSLPR expression (relative mRNA) (TSLPR [3]): significantly lower
- NLRP3 inflammasome inhibition (NLRP3 inflammasome): selectively inhibit
- PD-L1 expression (relative mRNA) (PD-L1 [4]): markedly lower
- TSLP expression (relative mRNA) (TSLP [5]): significantly lower
- TSLPR expression (relative mRNA) (TSLPR [6]): significantly lower
- mice surviving beyond 30 days (4T1 TNBC; Example 1, 4T1 TNBC mice on dapansutrile diet): half
- tumor volume (4T1 TNBC; Example 1, 4T1 TNBC mice, dapansutrile diet 15 days vs standard diet, after resection (FIG. 1B)): significantly decreased tumor volume
- survival rates (4T1 TNBC; Example 1, 4T1 TNBC mice, dapansutrile diet vs standard diet (FIG. 1D, n=10)): significantly higher survival rates
- tumor volumes (4T1 TNBC; Example 2, 4T1 TNBC mice, 15 days, dapansutrile diet and/or anti-IL-1α 200 μg/mouse every 3 days, vs vehicle (FIGS. 2B, 2C)): significantly reduced tumor volumes
- tumor volume (4T1 TNBC; Example 3, 4T1 TNBC mice, day 15 after resection, dapansutrile diet and/or anti-PD-1 200 μg/mouse on day 7, vs vehicle (FIG. 3B)): significant tumor reduction
- safety [7]: safe
- blood level [8]: ~40000 ng/mL
- IL-22 levels (IL-22): significantly reduced IL-22 levels
- blood level [9]: 40000 ng/mL
